Tests used:
[1] = target: T1, angiotensin converting enzyme (Oryctolagus cuniculus, UniProt P12822); assay: Inhibition of isolated angiotensin-converting enzyme of rabbit lung (cleavage of hippuryl-L-histidyl-L-leucine); type: biochemical; set-up: isolated angiotensin converting enzyme from rabbit lungs; from tissue; host or cells: rabbit lung; settings: 5 mM hippuryl-L-histidyl-L-leucine; pH 8.3; 30 minutes at 37° C.; read-out: I50 (50% inhibition of angiotensin-converting enzyme) (converted)
T1 sequence (P12822 34-1310): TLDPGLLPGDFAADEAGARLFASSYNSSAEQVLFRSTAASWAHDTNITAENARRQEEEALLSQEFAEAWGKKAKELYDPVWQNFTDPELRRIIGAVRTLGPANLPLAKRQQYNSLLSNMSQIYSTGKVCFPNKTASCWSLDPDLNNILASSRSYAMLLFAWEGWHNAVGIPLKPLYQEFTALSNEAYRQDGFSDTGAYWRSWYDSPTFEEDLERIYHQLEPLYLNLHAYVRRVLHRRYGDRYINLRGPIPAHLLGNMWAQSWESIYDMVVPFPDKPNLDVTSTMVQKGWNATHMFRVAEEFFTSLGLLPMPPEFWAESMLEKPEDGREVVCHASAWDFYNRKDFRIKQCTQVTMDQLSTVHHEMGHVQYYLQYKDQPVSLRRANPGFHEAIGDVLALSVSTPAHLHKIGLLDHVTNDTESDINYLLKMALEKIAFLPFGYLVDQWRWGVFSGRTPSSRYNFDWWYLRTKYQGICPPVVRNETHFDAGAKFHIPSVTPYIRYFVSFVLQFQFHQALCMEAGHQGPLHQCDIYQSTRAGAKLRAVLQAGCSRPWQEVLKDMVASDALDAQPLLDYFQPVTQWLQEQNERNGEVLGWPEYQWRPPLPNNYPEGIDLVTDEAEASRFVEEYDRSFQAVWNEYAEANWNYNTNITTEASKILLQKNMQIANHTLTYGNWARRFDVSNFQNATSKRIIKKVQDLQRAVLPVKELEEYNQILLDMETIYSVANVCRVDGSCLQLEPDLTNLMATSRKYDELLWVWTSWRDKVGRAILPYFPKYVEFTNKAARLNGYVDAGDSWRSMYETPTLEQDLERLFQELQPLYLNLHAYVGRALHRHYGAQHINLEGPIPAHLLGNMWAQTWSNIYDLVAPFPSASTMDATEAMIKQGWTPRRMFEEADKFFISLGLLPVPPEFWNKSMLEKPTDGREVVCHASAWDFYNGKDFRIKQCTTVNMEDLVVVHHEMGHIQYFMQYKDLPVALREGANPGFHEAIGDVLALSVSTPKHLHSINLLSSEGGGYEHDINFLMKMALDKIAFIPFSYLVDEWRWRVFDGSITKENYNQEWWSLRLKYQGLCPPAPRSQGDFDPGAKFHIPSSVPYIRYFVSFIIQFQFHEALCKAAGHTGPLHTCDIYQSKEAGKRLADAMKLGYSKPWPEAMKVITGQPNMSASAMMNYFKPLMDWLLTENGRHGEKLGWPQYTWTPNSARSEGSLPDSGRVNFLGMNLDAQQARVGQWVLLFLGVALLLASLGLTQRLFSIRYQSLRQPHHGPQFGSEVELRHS
Description: Although conversion of angiotensin I to angiotensin II by angiotensin-converting enzyme is probably the reaction of most importance in the pathology of hypertension, the activity of the isolated enzyme is more conveniently and accurately assayed by measuring its rate of cleavage of a simpler peptide substrate, hippuryl-L-histidyl-L-leucine. For determination of I50 values (concentrations of compounds expressed in micrograms/ml producing a 50% inhibition of angiotensin-converting enzyme) various concentrations of each compound are added to 13×100 mm tubes along with the following components at the indicated final concentrations in a final volume of 0.25 ml: 100 mM potassium phosphate buffer, pH 8.3; 300 mM sodium chloride; 5 mM hippuryl-L-histidyl-L-leucine; and 5 milliunits of angiotensin-converting enzyme of rabbit lung. Controls containing no inhibitor (100% activity), and those acidified before addition of the enzyme (0% activity) are similarly prepared. All of the enzymatic reactions are initiated by addition of the enzyme component; tubes are incubated for 30 minutes at 37° C.; and reactions are terminated by addition of 0.25 ml. of 1 N HCl. The hippuric acid formed by action of angiotensin-converting enzyme on hippuryl-L-histidyl-L-leucine is extracted into ethyl acetate, evaporated to dryness, redissolved in water and quantitated from its absorbance at 228 nm. The percent inhibition by each concentration of compound is calculated by comparison with the 0% and 100% activity controls. The concentrations of representative compounds of the present invention which inhibit activity of angiotensin-converting enzyme by 50% are shown in the following table: […]

[2] = tested on: angiotensin I converting enzyme in excised guinea pig ileum; assay: Inhibition of angiotensin I converting enzyme in excised guinea pig ileum (contractile activity of angiotensin I); settings: Krebs solution at 37°; angiotensin I 25 ng/ml
Protocol: The procedure for evaluating the inhibition of angiotensin I converting enzyme in excised guinea pig ileum is carried out as follows: varying concentrations of the compound are added to an excised guinea pig ileum bath in Krebs solution at 37°, aerated with a mixture of 95% O2 -5% CO2. After two minutes, angiotensin I (25 ng/ml) is added and the isotonic […] are measured. The concentration of representative compounds of the present invention (in micrograms/ml) which inhibit the contractile activity of angiotensin I by 50% (IC50) are shown in the following table: […]

normotensive rat = assay: Blood pressure in normotensive rat, oral; type: in vivo; settings: same dose (300 mg) orally
[3] = tested on: anesthetized normotensive rats; settings: intravenous; cited from earlier work
[4] = tested on: angiotensinogen and renin blood levels; settings: normotensive rats; cited from earlier work
[5] = in vivo; cited from earlier work
[6] = tested on: angiotensin I pressor response; assay: Inhibition of angiotensin I pressor response in unanesthetized rats, oral; type: in vivo, rat (male, Sprague-Dawley); settings: angiotensin I 0.31 μg/kg, 2 animals
Protocol: Representative compounds of the present invention are administered orally to unanesthetized male rats of the Sprague-Dawley strain, weighing about 200 g., followed by an injection of 0.31 μg/kg of angiotensin I. The following table indicates the degree of inhibition obtained.

[7] = tested on: 2-kidney Goldblatt renal hypertensive rat; assay: Mean blood pressure in 2-kidney Goldblatt renal hypertensive rat, oral; type: in vivo, rat (male, CF Nelson); settings: second dosage day, 300 mg oral
Description: Male rats of the CF Nelson strain are anesthetized with ether and each left renal artery is partially constricted with a silver clip (i.d. 0.22 mm). The right kidney and renal artery are left intact.

N=C(N)NCCC[C@H](NC(=O)CCS)C(=O)O [Example 8, N^α -(3-Mercaptopropanoyl)-L-arginine]
IC50 [1]: 0.648 µM
IC50 (inhibit the contractile activity of angiotensin I by 50%) [2]: 0.9 µg/mL

CN(CC(=O)O)C(=O)CCS [Example 10, N-(3-Mercaptopropanoyl)sarcosine]
IC50 [1]: 10.2 µM
IC50 (inhibit the contractile activity of angiotensin I by 50%) [2]: 0.94 µg/mL

N=C(N)NCCC[C@H](NC(=O)C(CS)Cc1ccccc1)C(=O)O (stereo partly drawn) [Example 34, N^α -(3-mercapto-2-benzylpropanoyl)-L-arginine]
IC50 (inhibit the contractile activity of angiotensin I by 50%) [2]: 4.1 µg/mL

O=C(CCS)N[C@@H](Cc1ccccc1)C(=O)O [Example 6, N-(3-Mercaptopropanoyl)-L-phenylalanine]
IC50 [1]: 3.39 µM
IC50 (inhibit the contractile activity of angiotensin I by 50%) [2]: 0.52 µg/mL

CC(S)C(=O)NCC(=O)O (stereo not shown) [Example 51, N-2-Mercaptopropanoylglycine]
effects on blood pressure (normotensive rat): no significant effects on blood pressure
lowering of the blood pressure [3]: produced lowering of the blood pressure
angiotensinogen [4]: increases angiotensinogen
renin blood levels [4]: lowers renin blood levels
effects of blood pressure [5]: no noticeable effects of blood pressure
IC50 [1]: 15.9 µM
% maximum inhibition of angiotensin I pressor response ± SE ([6]; 10 mg/kg oral): 29.9 ± 3.1%
% maximum inhibition of angiotensin I pressor response ± SE ([6]; 30 mg/kg oral): 52.9 ± 15.8%
% maximum inhibition of angiotensin I pressor response ± SE ([6]; 100 mg/kg oral): 64.9 ± 12.3%
Mean blood pressure ([7]; Rat #9, 1 h after drug, before drug 222): 206 mm Hg
Mean blood pressure ([7]; Rat #9, 2 h after drug, before drug 222): 173 mm Hg
Mean blood pressure ([7]; Rat #9, 3 h after drug, before drug 222): 157 mm Hg
Mean blood pressure ([7]; Rat #9, 4 h after drug, before drug 222): 184 mm Hg
Mean blood pressure ([7]; Rat #9, 5 h after drug, before drug 222): 206 mm Hg
Mean blood pressure ([7]; Rat #9, 6 h after drug, before drug 222): 199 mm Hg
Mean blood pressure ([7]; Rat #10, 1 h after drug, before drug 206): 203 mm Hg
Mean blood pressure ([7]; Rat #10, 2 h after drug, before drug 206): 190 mm Hg
Mean blood pressure ([7]; Rat #10, 3 h after drug, before drug 206): 189 mm Hg
Mean blood pressure ([7]; Rat #10, 4 h after drug, before drug 206): 199 mm Hg
Mean blood pressure ([7]; Rat #10, 5 h after drug, before drug 206): 195 mm Hg
Mean blood pressure ([7]; Rat #10, 6 h after drug, before drug 206): 197 mm Hg
IC50 (inhibit the contractile activity of angiotensin I by 50%) [2]: 2.0 µg/mL

C[C@H](NC(=O)CCS)C(=O)O [Example 2, N-(3-mercaptopropanoyl)-L-alanine]
IC50 [1]: 6.77 µM
IC50 (inhibit the contractile activity of angiotensin I by 50%) [2]: 0.94 µg/mL

O=C(O)CNC(=O)CCS [Example 15, N-(3-Mercaptopropanoyl)glycine]
IC50 [1]: 12.3 µM
% maximum inhibition of angiotensin I pressor response ± SE ([6]; 10 mg/kg oral): 34.2 ± 6.7%
% maximum inhibition of angiotensin I pressor response ± SE ([6]; 100 mg/kg oral): 61.5 ± 1.2%
IC50 (inhibit the contractile activity of angiotensin I by 50%) [2]: 4.5 µg/mL

CC(C)C[C@H](NC(=O)CCS)C(=O)O [Example 4, N-(3-Mercaptopropanoyl)-L-leucine]
IC50 [1]: 8.21 µM
IC50 (inhibit the contractile activity of angiotensin I by 50%) [2]: 2.0 µg/mL
